Data: patent US8017652B2, “Activators of peroxisome proliferator-activated receptors” (Kowa Company Ltd., priority 2000, dated 2011)

Tests used:
hepatoma = conditions: clinical, cited from earlier work
PPAR γ2 mRNA = experiment: Expression of PPAR γ2 mRNA in human cell line (RT-PCR); type: cell-based; conditions: Caco-2 cells, serum-free medium, 10 μM, 0-5 hours after addition
Description: (§1) Caco-2 cells (derived from colon cancer) as a human cell line were cultured at 37° C. in RPMI-1640 medium containing 10% fetal calf serum in the presence of 5% C02. The medium was then replaced with serum-free RPMI-1640 medium and the cells were cultured for 48 hours. In order to examine the effect of NIK-333, a solution of NIK-333 in ethanol was added at a final concentration of 10 μM. At 0, 0.5, 1, 2 and 5 hours after the addition, RNA was extracted to observe. mRNA for PPAR α, PPAR γ1 and PPAR γ2 by the RT-PCR method.

PPAR α = target: T1, PPAR α (Homo sapiens, UniProt Q07869); experiment: Ligand activity for PPAR α (PPRE luciferase reporter in COS-7 cells); type: cell-based; conditions: 10 μM, 24 hours, FIG. 3; for luciferase activity, PPAR α expression vector not introduced (−) / luciferase activity, PPAR α expression vector introduced (+): firefly luciferase standardized by renilla luciferase; for luciferase activity, PPAR α expression vector introduced (+): RXR α + PPAR α + PPRE reporter
T1 construct: expressed in transfected cells; host or cells: COS-7 (monkey kidney)
T1 sequence (Q07869 1-468): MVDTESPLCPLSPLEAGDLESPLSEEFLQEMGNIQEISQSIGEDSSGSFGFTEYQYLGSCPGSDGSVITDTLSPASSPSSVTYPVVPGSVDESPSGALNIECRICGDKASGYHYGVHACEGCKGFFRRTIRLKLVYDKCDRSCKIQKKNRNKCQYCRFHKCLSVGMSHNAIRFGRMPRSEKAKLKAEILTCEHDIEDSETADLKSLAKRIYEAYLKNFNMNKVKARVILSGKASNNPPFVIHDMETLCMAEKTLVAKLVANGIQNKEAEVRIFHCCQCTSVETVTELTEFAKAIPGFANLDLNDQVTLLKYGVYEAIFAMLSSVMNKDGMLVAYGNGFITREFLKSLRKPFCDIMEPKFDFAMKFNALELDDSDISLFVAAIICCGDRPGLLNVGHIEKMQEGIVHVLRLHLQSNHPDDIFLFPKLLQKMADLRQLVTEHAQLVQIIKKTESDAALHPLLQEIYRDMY
T1 sequence (P19793 1-462 partner): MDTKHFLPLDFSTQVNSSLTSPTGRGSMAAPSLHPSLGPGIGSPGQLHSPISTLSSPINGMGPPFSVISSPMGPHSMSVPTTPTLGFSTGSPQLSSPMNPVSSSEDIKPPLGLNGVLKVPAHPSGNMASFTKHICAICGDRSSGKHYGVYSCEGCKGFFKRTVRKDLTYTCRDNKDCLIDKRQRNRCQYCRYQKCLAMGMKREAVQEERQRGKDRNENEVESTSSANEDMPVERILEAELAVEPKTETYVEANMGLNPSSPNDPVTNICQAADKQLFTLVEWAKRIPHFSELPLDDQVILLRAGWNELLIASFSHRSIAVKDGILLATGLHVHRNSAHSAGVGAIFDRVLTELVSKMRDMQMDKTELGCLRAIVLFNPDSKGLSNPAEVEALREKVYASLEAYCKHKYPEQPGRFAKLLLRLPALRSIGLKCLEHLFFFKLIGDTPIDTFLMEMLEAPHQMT
Description: COS-7 cells, a cell line derived from monkey kidney, were cultured at 37° C. in DMEM medium containing 10% fetal calf serum in the presence of 5% CO2. Then, expression vectors of RXR α (retinoic acid X receptor α) and PPAR α, and a reporter vector incorporated with PPRE (peroxisome proliferator-responsive element) as a PPAR-responsive element were cotransfected into the cells, and the cells were cultured for 24 hours. In order to examine the effect of NIK-333, a solution of NIK-333 or Wy-14643(selective agonist of PPAR α) in ethanol was added at a final concentration of 10 μM. After cultivation for 24 hours, the activity of firefly luciferase was measured. The measured values were represented as values standardized by using the renilla luciferase activity.

PPAR α mRNA = experiment: Expression of PPAR α mRNA in human cell line (RT-PCR); type: cell-based; conditions: Caco-2 cells, serum-free medium, 10 μM, 0-5 hours after addition, FIG. 1
Description: as §1

PPAR γ1 mRNA = experiment: Expression of PPAR γ1 mRNA in human cell line (RT-PCR); type: cell-based; conditions: Caco-2 cells, serum-free medium, 10 μM, 0-5 hours after addition, FIG. 2
Description: as §1

Which results are given for `CC(C)=CCC/C(C)=C/CC/C(C)=C/C=C/C(C)=C/C(=O)O` [NIK-333, (2E,4E,6E,10E)-3,7,11,15-Tetramethyl-2,4,6,10,14-hexadecapentaenoic acid]?
recurrence of hepatoma after radical treatment (hepatoma; long-term administration for one-year): significantly inhibited recurrence of hepatoma; liver function failure or other adverse effect during the administration (hepatoma; long-term administration): almost no liver function failure or almost no other adverse effect; expression of PPAR γ2 mRNA (PPAR γ2 mRNA): not observed; increasing action of ligand activity compared with Wy-14643 (PPAR α): almost equivalent to the action of Wy-14643; luciferase activity, PPAR α expression vector not introduced (−) (PPAR α): failed to increase the luciferase activity; luciferase activity, PPAR α expression vector introduced (+) (PPAR α): increased the luciferase activity; expression of PPAR α mRNA (PPAR α mRNA): observed from 0.5 hour after the addition; expression of PPAR γ1 mRNA (PPAR γ1 mRNA): also observed from 0.5 hour after the addition

Which “luciferase activity, PPAR α expression vector not introduced (−)” value (PPAR α) does the source give for `Cc1cccc(Nc2cc(Cl)nc(SCC(=O)O)n2)c1C` [Wy-14643, reference compound] here?
The value was “failed to increase the luciferase activity”.

What about the “luciferase activity, PPAR α expression vector introduced (+)” value (PPAR α) of the same compound?
The value was “increased the luciferase activity”.
